# Molecular target: human Cat S (Homo sapiens (Human), UniProt P25774)
# Test: Cathepsin enzyme inhibition assay (fluorogenic peptide substrate Z-Val-Val-Arg-AMC)
# Format: biochemical
# Settings: enzyme 1 nM, substrate 20 μM, pH 6.5
# Experimental: Cathepsin Enzyme Inhibition Assay
# Enzyme activity is measured by observing the increase in fluorescence intensity caused by cleavage of a peptide substrate containing a fluorophore whose emission is quenched in the intact peptide.
# Assay buffer: 100 mM potassium phosphate pH 6.5, EDTA-Na 5 mM, Triton X-100 0.001%, DTT 5 mM.
# Enzymes (all at 1 nM): human and mouse Cathepsin S, Cat K, Cat B, Cat L.
# Substrate (20 μM): Z-Val-Val-Arg-AMC, except for Cat K which uses Z-Leu-Arg-AMC (both from Bachem).
# AMC=7-Amino-4-Methyl-Coumarin.
# Excitation 360 nm, Emission 465 nm.
# Enzyme is added to the substance dilutions in 96-well microtitre plates and the reaction is started with substrate. […] IC50 are calculated by standard methods.
# Inhibition of human Cat S, mouse Cat S, human Cat K, human Cat B, human Cat L and mouse Cat L have been measured separately.
# Sequence of human Cat S (P25774 115-331): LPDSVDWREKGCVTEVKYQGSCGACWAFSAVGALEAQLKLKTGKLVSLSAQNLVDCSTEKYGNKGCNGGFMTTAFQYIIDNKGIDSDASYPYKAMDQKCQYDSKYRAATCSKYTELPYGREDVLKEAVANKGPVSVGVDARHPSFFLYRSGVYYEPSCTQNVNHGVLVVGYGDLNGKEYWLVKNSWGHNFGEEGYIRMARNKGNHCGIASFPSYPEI
row,SMILES,IC50 [nM]
1,"Cc1nc(C)c(-c2ccc(S(=O)(=O)[C@@H]3C[C@@H](C(=O)NC4(C#N)CC4)N(C(=O)C4(C(F)(F)F)CC4)C3)cc2)s1 [Example 49, (2S,4R)—N-(1-cyanocyclopropyl)-4-(4-(2,4-dimethylthiazol-5-yl)phenylsulfonyl)-1-(1-(trifluoromethyl)cyclopropanecarbonyl)pyrrolidine-2-carboxamide]",0.909
2,"COc1ncc(-c2ccc(S(=O)(=O)[C@@H]3C[C@@H](C(=O)NC4(C#N)CC4)N(C(=O)C4(C(F)(F)F)CC4)C3)cc2)cn1 [Example 51, (2S,4R)—N-(1-cyanocyclopropyl)-4-(4-(2-methoxypyrimidin-5-yl)phenylsulfonyl)-1-(1-(trifluoromethyl)cyclopropanecarbonyl)pyrrolidine-2-carboxamide]",0.882
3,"Cc1ncnn1-c1ccc(S(=O)(=O)[C@@H]2C[C@@H](C(=O)NC3(C#N)CC3)N(C(=O)C3(C(F)(F)F)CC3)C2)c(Cl)c1 [Example 52, (2S,4R)-4-(2-chloro-4-(5-methyl-1H-1,2,4-triazol-1-yl)phenylsulfonyl)-N-(1-cyanocyclopropyl)-1-(1-(trifluoromethyl)cyclopropanecarbonyl)pyrrolidine-2-carboxamide]",0.486
4,"Cc1noc(C)c1-c1ccc(S(=O)(=O)[C@@H]2C[C@@H](C(=O)NC3(C#N)CC3)N(C(=O)C3(C(F)(F)F)CC3)C2)cc1 [Example 55, (2S,4R)—N-(1-cyanocyclopropyl)-4-(4-(3,5-dimethylisoxazol-4-yl)phenylsulfonyl)-1-(1-(trifluoromethyl)cyclopropanecarbonyl)pyrrolidine-2-carboxamide]",1.44
5,"COc1ncc(-c2ccc(S(=O)(=O)[C@@H]3C[C@@H](C(=O)NC4(C#N)CC4)N(C(=O)C4(C(F)(F)F)CC4)C3)c(C)c2)cn1 [Example 62, (2S,4R)—N-(1-cyanocyclopropyl)-4-(4-(2-methoxypyrimidin-5-yl)-2-methylphenylsulfonyl)-1-(1-(trifluoromethyl)cyclopropanecarbonyl)pyrrolidine-2-carboxamide]",0.592
6,"Cc1cc(-n2cnc(Cl)n2)ccc1S(=O)(=O)[C@@H]1C[C@H](C(=O)NC2(C#N)CC2)N(C(=O)C2(C(F)(F)F)CC2)C1 [Example 67, (2R,4R)-4-(4-(3-chloro-1H-1,2,4-triazol-1-yl)-2-methylphenylsulfonyl)-N-(1-cyanocyclopropyl)-1-(1-(trifluoromethyl)cyclopropanecarbonyl)pyrrolidine-2-carboxamide]",542
7,"Cn1cc(-c2ccc(S(=O)(=O)[C@@H]3C[C@@H](C(=O)NC4(C#N)CC4)N(C(=O)C4(C(F)(F)F)CC4)C3)c(C(F)(F)F)c2)c(C(F)(F)F)n1 [Example 68, (2S,4R)-4-[4-(1-Methyl-3-trifluoromethyl-1Hpyrazol-4-yl)-2-trifluoromethyl-benzenesulfonyl]-1-(1-trifluoromethyl-cyclopropanecarbonyl)-pyrrolidine-2-carboxylic acid (1-cyano-cyclopropyl)-amide]",0.829
8,"N#CC1(NC(=O)[C@@H]2C[C@@H](S(=O)(=O)c3ccc(-n4cnc(Cl)n4)cc3)CN2C(=O)C2(C(F)(F)F)CC2)CC1 [Example 69, (2S,4R)-4-(4-(3-chloro-1H-1,2,4-triazol-1-yl)phenylsulfonyl)-N-(1-cyanocyclopropyl)-1-(1-(trifluoromethyl)cyclopropanecarbonyl)pyrrolidine-2-carboxamide]",497

# The next lines start with the values.
row,IC50 [nM],SMILES
1,0.728,"Cc1ncc(-c2ccc(S(=O)(=O)[C@@H]3C[C@@H](C(=O)NC4(C#N)CC4)N(C(=O)C4(C(F)(F)F)CC4)C3)cc2)s1 [Example 50, (2S,4R)—N-(1-cyanocyclopropyl)-4-(4-(2-methylthiazol-5-yl)phenylsulfonyl)-1-(1-(trifluoromethyl)cyclopropanecarbonyl)pyrrolidine-2-carboxamide]"
2,0.382,"N#CC1(NC(=O)[C@@H]2C[C@@H](S(=O)(=O)c3ccc(-n4ccnn4)cc3C(F)(F)F)CN2C(=O)C2(C(F)(F)F)CC2)CC1 [Example 54, (2S,4R)-4-(4-[1,2,3]Triazol-1-yl-2-trifluoromethyl-benzenesulfonyl)-1-(1-trifluoromethyl-cyclopropanecarbonyl)-pyrrolidine-2-carboxylic acid (1-cyano-cyclopropyl)-amide]"
3,0.526,"N#CC1(NC(=O)[C@@H]2C[C@@H](S(=O)(=O)c3ccc(-c4cnn(C(F)F)c4)cc3C(F)(F)F)CN2C(=O)C2(C(F)(F)F)CC2)CC1 [Example 56, (2S,4R)-4-[4-(1-Difluoromethyl-1Hpyrazol-4-yl)-2-trifluoromethyl-benzenesulfonyl]-1-(1-trifluoromethyl-cyclopropanecarbonyl)-pyrrolidine-2-carboxylic acid (1-cyano-cyclopropyl)-amide]"
4,0.564,"Cc1nnn(-c2ccc(S(=O)(=O)[C@@H]3C[C@@H](C(=O)NC4(C#N)CC4)N(C(=O)C4(C(F)(F)F)CC4)C3)c(C(F)(F)F)c2)n1 [Example 57, (2S,4R)-4-[4-(5-Methyl-tetrazol-2-yl)-2-trifluoromethyl-benzenesulfonyl]-1-(1-trifluoromethyl-cyclopropanecarbonyl)-pyrrolidine-2-carboxylic acid (1-cyano-cyclopropyl)-amide]"
5,2.42,"N#CC1(NC(=O)[C@@H]2C[C@@H](S(=O)(=O)c3ccc(-c4c[nH]nc4C(F)(F)F)cc3C(F)(F)F)CN2C(=O)C2(C(F)(F)F)CC2)CC1 [Example 58, (2S,4R)-1-(1-Trifluoromethyl-cyclopropanecarbonyl)-4-[2-trifluoromethyl-4-(3-trifluoromethyl-1Hpyrazol-4-yl)-benzenesulfonyl]-pyrrolidine-2-carboxylic acid (1-cyano-cyclopropyl)-amide]"
6,0.943,"Cc1cc(-c2ccccc2CO)ccc1S(=O)(=O)[C@@H]1C[C@@H](C(=O)NC2(C#N)CC2)N(C(=O)C2(C(F)(F)F)CC2)C1 [Example 59, (2S,4R)—N-(1-cyanocyclopropyl)-4-(2′-(hydroxymethyl)-3-methylbiphenyl-4-ylsulfonyl)-1-(1-(trifluoromethyl)cyclopropanecarbonyl)pyrrolidine-2-carboxamide]"
7,0.614,"Cc1nc(C)c(-c2ccc(S(=O)(=O)[C@@H]3C[C@@H](C(=O)NC4(C#N)CC4)N(C(=O)C4(C(F)(F)F)CC4)C3)c(C)c2)s1 [Example 60, (2S,4R)—N-(1-cyanocyclopropyl)-4-(4-(2,4-dimethylthiazol-5-yl)-2-methylphenylsulfonyl)-1-(1-(trifluoromethyl)cyclopropanecarbonyl)pyrrolidine-2-carboxamide]"
8,0.613,"Cc1ncc(-c2ccc(S(=O)(=O)[C@@H]3C[C@@H](C(=O)NC4(C#N)CC4)N(C(=O)C4(C(F)(F)F)CC4)C3)c(C)c2)s1 [Example 61, (2S,4R)—N-(1-cyanocyclopropyl)-4-(2-methyl-4-(2-methylthiazol-5-yl)phenylsulfonyl)-1-(1-(trifluoromethyl)cyclopropanecarbonyl)pyrrolidine-2-carboxamide]"
9,0.585,"Cc1ncc(-c2ccc(S(=O)(=O)[C@@H]3C[C@@H](C(=O)NC4(C#N)CC4)N(C(=O)C4(C(F)(F)F)CC4)C3)c(C(F)(F)F)c2)s1 [Example 63, (2S,4R)-4-[4-(2-Methyl-thiazol-5-yl)-2-trifluoromethyl-benzenesulfonyl]-1-(1-trifluoromethyl-cyclopropanecarbonyl)-pyrrolidine-2-carboxylic acid (1-cyano-cyclopropyl)-amide]"
10,0.65,"Cc1cc(-c2c(C)noc2C)ccc1S(=O)(=O)[C@@H]1C[C@@H](C(=O)NC2(C#N)CC2)N(C(=O)C2(C(F)(F)F)CC2)C1 [Example 64, (2S,4R)—N-(1-cyanocyclopropyl)-4-(4-(3,5-dimethylisoxazol-4-yl)-2-methylphenylsulfonyl)-1-(1-(trifluoromethyl)cyclopropanecarbonyl)pyrrolidine-2-carboxamide]"
11,223,"Cc1cc(-n2cnc(Cl)n2)ccc1S(=O)(=O)[C@@H]1C[C@@H](C(=O)NC2(C#N)CC2)N(C(=O)C2(C(F)(F)F)CC2)C1 [Example 66, (2S,4R)-4-(4-(3-chloro-1H-1,2,4-triazol-1-yl)-2-methylphenylsulfonyl)-N-(1-cyanocyclopropyl)-1-(1-(trifluoromethyl)cyclopropanecarbonyl)pyrrolidine-2-carboxamide]"

# From patent US10689339B2, “Pyrrolidine derivatives” (Hoffmann-La Roche Inc., priority 2016, dated 2020)
